According to US20230382949A1 (HEPTARES THERAPEUTICS LIMITED, priority 2020, published 2023):
Where two headings read alike, the source gives them in different places. Starred links: 1 amine or outer side, 2 acyl side, 3 side chain; linkers in the order of their positions; H or OH if unused. Non-standard residues stand in square brackets, D forms with d. Residues, ends and D or L forms follow the SMILES beside them. *: point of attachment. Ala(piperidin-4-yl) = O=C([C@H](CC1CCN([*:3])CC1)N[*:1])[*:2]; Malonyl(2,2-Me2,histaminyl) = CC(C)(C(=O)NCCc1cnc[nH]1)C(=O)*; Ala(1-imidazolyl) = N[C@@H](Cn1ccnc1)C(=O)O; dBip = N[C@H](Cc1ccc(-c2ccccc2)cc1)C(=O)O; Oic = O=C(O)[C@@H]1C[C@@H]2CCCC[C@@H]2N1; Phe(4-Br) = N[C@@H](Cc1ccc(Br)cc1)C(=O)O; hArg = N=C(N)NCCCC[C@H](N)C(=O)O; tBuAla = CC(C)(C)C[C@H](N)C(=O)O; Cba = N[C@@H](CC1CCC1)C(=O)O; Pip = O=C(O)[C@@H]1CCCCN1; Nle = CCCC[C@H](N)C(=O)O; Aib = CC(C)(N)C(=O)O

Experiments:
human Apelin receptor [1] = biological target: T1, human Apelin receptor (Homo sapiens, UniProt P35414); assay: β-arrestin accumulation assay, functional agonism of human Apelin receptors; assay type: cell-based
T1 construct: host or cells: CHO-K1 cells
Method in brief: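 After 16 h at 37° C., cells were exposed to increasing agonist concentrations in serum-free medium for 90 min at 37° C. Detection reagent added for 60 min in the dark; receptor activation read by fluorescence and EC50 derived from concentration-response curves.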
T1 sequence (P32121 whole entry partner, one chain of several): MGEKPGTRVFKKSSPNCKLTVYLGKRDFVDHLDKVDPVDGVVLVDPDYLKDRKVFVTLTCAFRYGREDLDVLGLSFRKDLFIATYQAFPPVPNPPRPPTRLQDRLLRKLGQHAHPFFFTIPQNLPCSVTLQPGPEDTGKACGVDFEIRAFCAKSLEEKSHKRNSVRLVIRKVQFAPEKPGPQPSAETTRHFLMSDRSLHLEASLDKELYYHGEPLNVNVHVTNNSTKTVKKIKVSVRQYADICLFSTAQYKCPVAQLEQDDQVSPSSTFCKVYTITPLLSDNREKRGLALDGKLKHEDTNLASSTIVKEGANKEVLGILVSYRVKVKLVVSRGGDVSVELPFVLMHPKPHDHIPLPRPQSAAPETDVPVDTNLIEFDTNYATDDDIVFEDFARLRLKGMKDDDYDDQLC

human Apelin receptor [2] = biological target: T2, human Apelin receptor (Homo sapiens, UniProt P35414); assay: cAMP accumulation assay (HTRF), functional agonism of human Apelin receptors; assay type: cell-based; conditions: for Emax: CHO
T2 sequence (P35414 1-380): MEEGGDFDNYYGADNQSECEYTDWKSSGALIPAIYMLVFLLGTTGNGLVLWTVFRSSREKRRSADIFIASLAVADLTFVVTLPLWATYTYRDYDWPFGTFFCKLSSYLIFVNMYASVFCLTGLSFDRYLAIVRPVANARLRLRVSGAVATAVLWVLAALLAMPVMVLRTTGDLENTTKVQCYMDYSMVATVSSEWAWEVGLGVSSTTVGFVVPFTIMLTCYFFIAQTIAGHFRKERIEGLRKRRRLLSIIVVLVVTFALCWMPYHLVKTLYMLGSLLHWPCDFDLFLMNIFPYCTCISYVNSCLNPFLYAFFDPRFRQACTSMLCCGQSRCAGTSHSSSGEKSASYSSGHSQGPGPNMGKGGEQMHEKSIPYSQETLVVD
Source text: cAMP functional assay. cAMP production was quantified using the Homogeneous Time-Resolved Fluorescence (HTRF) cAMP dynamic-2 assay (Cisbio, France).

[3] = Human Apelin agonist cAMP assay, CHO cells stably expressing the human Apelin receptor, 3 uM forskolin
[4] = pEC50, Human Apelin agonist cAMP assay, CHO cells stably expressing the human Apelin receptor, 3 uM forskolin

CC(C)C[C@H](NC(=O)[C@H](CCCNC(=N)N)NC(=O)[C@@H]1CCCN1C(=O)[C@@H](CCCNC(=N)N)NC(=O)[C@H](CCC(N)=O)NC(=O)[C@@H](CCCNC(=N)N)NC(=O)C(C)(C)C(=O)NCCc1cnc[nH]1)C(=O)NC(C)(C)C(=O)N[C@@H](Cc1ccc(Br)cc1)C(=O)N[C@@H](CC1CCNCC1)C(=O)NCC(=O)N1[C@H](C(=O)N[C@@H](Cc2ccccc2)C(=O)N2CCC[C@H]2C(=O)N[C@H](Cc2ccc(-c3ccccc3)cc2)C(=O)O)C[C@@H]2CCCC[C@@H]21 [Example 35] ({Malonyl(2,2-Me2,histaminyl)}-[dR]Q[dR]PRL[Aib][Phe(4-Br)][Ala(piperidin-4-yl)]G[Oic]FP[dBip]-OH) was tested, and the EC50 (human Apelin receptor [1]) was greater than 10000 nM, the Emax (human Apelin receptor [2]; [3]) was 35.3% and the EC50 (human Apelin receptor [2]; [4]) was 63.1 nM.
Work on CC(C)C[C@H](NC(=O)[C@@H](CCCNC(=N)N)NC(=O)[C@@H]1CCCN1C(=O)[C@H](CCCCNC(=N)N)NC(=O)[C@H](CCC(N)=O)NC(=O)[C@@H](CCCNC(=N)N)NC(=O)C(C)(C)C(=O)NCCc1cnc[nH]1)C(=O)NC(C)(C)C(=O)N[C@@H](Cn1ccnc1)C(=O)N[C@@H](CC1CCNCC1)C(=O)NCC(=O)N1[C@H](C(=O)N[C@@H](Cc2ccc(Br)cc2)C(=O)N2CCC[C@H]2C(=O)N[C@H](Cc2ccc(-c3ccccc3)cc2)C(=O)O)C[C@@H]2CCCC[C@@H]21 [Example 28] ({Malonyl(2,2-Me2,histaminyl)}-[dR]Q[hArg]P[dR]L[Aib][Ala(1-imidazolyl)][Ala(piperidin-4-yl)]G[Oic][Phe(4-Br)]P[dBip]-OH) yielded an EC50 (human Apelin receptor [1]) greater than 10000 nM, an Emax (human Apelin receptor [2]; [3]) of 27.4% and an EC50 (human Apelin receptor [2]; [4]) of 15.8 nM.
With CCCC[C@H](NC(=O)[C@@H]1C[C@@H]2CCCC[C@@H]2N1C(=O)[C@H](C)NC(=O)[C@H](CC1CCNCC1)NC(=O)[C@H](Cc1ccc(Br)cc1)NC(=O)C(C)(C)NC(=O)[C@H](CC(C)C)NC(=O)[C@@H](CCCNC(=N)N)NC(=O)[C@@H]1CCCCN1C(=O)[C@H](CCCCNC(=N)N)NC(=O)[C@H](CCC(N)=O)NC(=O)C(C)(C)C(=O)NCCc1cnc[nH]1)C(=O)N1CCC[C@H]1C(=O)N[C@H](Cc1ccc(-c2ccccc2)cc1)C(=O)O [Example 62] ({Malonyl(2,2-Me2,histaminyl)}-Q[hArg][Pip][dR]L[Aib][Phe(4-Br)][Ala(piperidin-4-yl)]A[Oic][Nle]P[dBip]-OH) the EC50 (human Apelin receptor [1]) was greater than 10000 nM, the Emax (human Apelin receptor [2]; read-out: Emax) was 31.7% and the EC50 (human Apelin receptor [2]; read-out: pEC50 (converted)) was 100 nM.
Work on CC(C)(C)C[C@H](NC(=O)[C@@H](CCCNC(=N)N)NC(=O)[C@@H]1CCCN1C(=O)[C@H](CCCCNC(=N)N)NC(=O)[C@H](CCC(N)=O)NC(=O)[C@@H](CCCNC(=N)N)NC(=O)C(C)(C)C(=O)NCCc1c[nH]cn1)C(=O)NC(C)(C)C(=O)N[C@@H](Cc1c[nH]cn1)C(=O)N[C@@H](CC1CCNCC1)C(=O)NCC(=O)N1[C@H](C(=O)N[C@@H](Cc2ccc(Br)cc2)C(=O)N2CCC[C@H]2C(=O)N[C@H](Cc2ccc(-c3ccccc3)cc2)C(=O)O)C[C@@H]2CCCC[C@@H]21 [Example 13] ({Malonyl(2,2-Me2,histaminyl)}-[dR]Q[hArg]P[dR][tBuAla][Aib]H[Ala(piperidin-4-yl)]G[Oic][Phe(4-Br)]P[dBip]-OH) yielded an EC50 (human Apelin receptor [1]) greater than 10000 nM, an Emax (human Apelin receptor [2]; [3]) of 72.9% and an EC50 (human Apelin receptor [2]; [4]) of 25.1 nM.
Compound CCCC[C@H](NC(=O)[C@@H]1C[C@@H]2CCCC[C@@H]2N1C(=O)CNC(=O)[C@H](CC1CCNCC1)NC(=O)[C@H](Cc1ccc(Br)cc1)NC(=O)C(C)(C)NC(=O)[C@H](CC(C)C)NC(=O)[C@@H](CCCNC(=N)N)NC(=O)[C@@H]1CCCN1C(=O)[C@H](CCCCNC(=N)N)NC(=O)[C@H](CCC(N)=O)NC(=O)[C@@H](CCCNC(=N)N)NC(=O)C(C)(C)C(=O)NCCc1cnc[nH]1)C(=O)N1CCC[C@H]1C(=O)N[C@H](Cc1ccc(-c2ccccc2)cc1)C(=O)O [Example 33] ({Malonyl(2,2-Me2,histaminyl)}-[dR]Q[hArg]P[dR]L[Aib][Phe(4-Br)][Ala(piperidin-4-yl)]G[Oic][Nle]P[dBip]-OH) has an EC50 (human Apelin receptor [1]) greater than 10000 nM, an Emax (human Apelin receptor [2]; [3]) of 63% and an EC50 (human Apelin receptor [2]; [4]) of 25.1 nM.
For CC(C)C[C@H](NC(=O)[C@@H](CCCNC(=N)N)NC(=O)[C@@H]1CCCN1C(=O)[C@H](CCCCNC(=N)N)NC(=O)[C@H](CCC(N)=O)NC(=O)C(C)(C)C(=O)NCCc1cnc[nH]1)C(=O)NC(C)(C)C(=O)N[C@@H](Cc1c[nH]cn1)C(=O)N[C@@H](CC1CCNCC1)C(=O)NCC(=O)N1[C@H](C(=O)N[C@@H](Cc2ccc(Br)cc2)C(=O)N2CCC[C@H]2C(=O)N[C@H](Cc2ccc(-c3ccccc3)cc2)C(=O)O)C[C@@H]2CCCC[C@@H]21 [Example 39] ({Malonyl(2,2-Me2,histaminyl)}-Q[hArg]P[dR]L[Aib]H[Ala(piperidin-4-yl)]G[Oic][Phe(4-Br)]P[dBip]-OH), the EC50 (human Apelin receptor [1]) was greater than 10000 nM, the Emax (human Apelin receptor [2]; [3]) was 62.1% and the EC50 (human Apelin receptor [2]; [4]) was 31.6 nM.
Compound CC(C)C[C@H](NC(=O)[C@@H](CCCNC(=N)N)NC(=O)[C@@H]1CCCN1C(=O)[C@H](CCCCNC(=N)N)NC(=O)[C@H](CCC(N)=O)NC(=O)C(C)(C)C(=O)NCCc1cnc[nH]1)C(=O)N[C@@H](CO)C(=O)NC(C)(C)C(=O)N[C@@H](CC1CCNCC1)C(=O)NCC(=O)N1[C@H](C(=O)N[C@@H](Cc2ccc(Br)cc2)C(=O)N2CCC[C@H]2C(=O)N[C@H](Cc2ccc(-c3ccccc3)cc2)C(=O)O)C[C@@H]2CCCC[C@@H]21 [Example 47] ({Malonyl(2,2-Me2,histaminyl)}-Q[hArg]P[dR]LS[Aib][Ala(piperidin-4-yl)]G[Oic][Phe(4-Br)]P[dBip]-OH) has an EC50 (human Apelin receptor [1]) greater than 1000 nM, an Emax (human Apelin receptor [2]; [3]) of 94.2% and an EC50 (human Apelin receptor [2]; [4]) of 12.6 nM.
Work on CC(C)C[C@H](NC(=O)[C@H](CCCNC(=N)N)NC(=O)[C@@H]1CCCN1C(=O)[C@@H](CCCNC(=N)N)NC(=O)[C@H](CCC(N)=O)NC(=O)[C@@H](CCCNC(=N)N)NC(=O)C(C)(C)C(=O)NCCc1c[nH]cn1)C(=O)NC(C)(C)C(=O)N[C@@H](Cc1c[nH]cn1)C(=O)N[C@@H](CC1CCNCC1)C(=O)NCC(=O)N1[C@H](C(=O)N[C@@H](Cc2ccc(Br)cc2)C(=O)N2CCC[C@H]2C(=O)N[C@H](Cc2ccc(-c3ccccc3)cc2)C(=O)O)C[C@@H]2CCCC[C@@H]21 [Example 25] ({Malonyl(2,2-Me2,histaminyl)}-[dR]Q[dR]PRL[Aib]H[Ala(piperidin-4-yl)]G[Oic][Phe(4-Br)]P[dBip]-OH) yielded an EC50 (human Apelin receptor [1]) greater than 10000 nM, an Emax (human Apelin receptor [2]; [3]) of 92.7% and an EC50 (human Apelin receptor [2]; [4]) of 15.8 nM.
With CC(C)C[C@@H](NC(=O)[C@@H](CCCNC(=N)N)NC(=O)[C@@H]1CCCN1C(=O)[C@H](CCCCNC(=N)N)NC(=O)[C@@H](CCC(N)=O)NC(=O)C(C)(C)C(=O)NCCc1cnc[nH]1)C(=O)NC(C)(C)C(=O)N[C@@H](Cc1c[nH]cn1)C(=O)N[C@@H](CC1CCNCC1)C(=O)N[C@H](C)C(=O)N1[C@H](C(=O)N[C@@H](Cc2ccc(Br)cc2)C(=O)N2CCC[C@H]2C(=O)N[C@H](Cc2ccc(-c3ccccc3)cc2)C(=O)O)C[C@@H]2CCCC[C@@H]21 [Example 48] ({Malonyl(2,2-Me2,histaminyl)}-[dQ][hArg]P[dR][dL][Aib]H[Ala(piperidin-4-yl)][dA][Oic][Phe(4-Br)]P[dBip]-OH) the EC50 (human Apelin receptor [1]) was greater than 10000 nM, the Emax (human Apelin receptor [2]; [3]) was 33.5% and the EC50 (human Apelin receptor [2]; [4]) was 100 nM.
CC(C)(NC(=O)[C@H](CC1CCC1)NC(=O)[C@@H](CCCNC(=N)N)NC(=O)[C@@H]1CCCN1C(=O)[C@H](CCCCNC(=N)N)NC(=O)[C@H](CCC(N)=O)NC(=O)[C@@H](CCCNC(=N)N)NC(=O)C(C)(C)C(=O)NCCc1c[nH]cn1)C(=O)N[C@@H](Cc1c[nH]cn1)C(=O)N[C@@H](CC1CCNCC1)C(=O)NCC(=O)N1[C@H](C(=O)N[C@@H](Cc2ccc(Br)cc2)C(=O)N2CCC[C@H]2C(=O)N[C@H](Cc2ccc(-c3ccccc3)cc2)C(=O)O)C[C@@H]2CCCC[C@@H]21 [Example 14] ({Malonyl(2,2-Me2,histaminyl)}-[dR]Q[hArg]P[dR][Cba][Aib]H[Ala(piperidin-4-yl)]G[Oic][Phe(4-Br)]P[dBip]-OH) gave an EC50 (human Apelin receptor [1]) greater than 10000 nM, an Emax (human Apelin receptor [2]; [3]) of 77% and an EC50 (human Apelin receptor [2]; [4]) of 7.94 nM.
CC(C)C[C@H](NC(=O)[C@@H](CCCNC(=N)N)NC(=O)[C@@H]1CCCN1C(=O)[C@H](CCCCNC(=N)N)NC(=O)[C@H](CCC(N)=O)NC(=O)[C@@H](CCCNC(=N)N)NC(=O)C(C)(C)C(=O)NCCc1cnc[nH]1)C(=O)NC(C)(C)C(=O)N[C@@H](Cc1c[nH]cn1)C(=O)N[C@@H](CC1CCNCC1)C(=O)NCC(=O)N1[C@H](C(=O)N[C@@H](Cc2ccc(Br)cc2)C(=O)N2CCC[C@H]2C(=O)N[C@H](Cc2ccc(-c3ccccc3)cc2)C(=O)O)C[C@@H]2CCCC[C@@H]21 [Example 2] ({Malonyl(2,2-Me2,histaminyl)}-[dR]Q[hArg]P[dR]L[Aib]H[Ala(piperidin-4-yl)]G[Oic][Phe(4-Br)]P[dBip]-OH) showed an EC50 (human Apelin receptor [1]) greater than 10000 nM, an Emax (human Apelin receptor [2]; [3]) of 50.8% and an EC50 (human Apelin receptor [2]; [4]) of 20 nM.
